This is an account of results in patent publication US20110112010A1, “OCTANOIC ACID FORMULATIONS AND METHODS OF TREATMENT USING THE SAME” (The Government of the United States of America, as …, priority 2008, published 2011).

Data set [1] concerns Essential Tremor. Description: Tremor assessment by digitized Archimedes spirals after oral 1-octanol. It is filed as in vivo, human. As to the method: Subjects: All subjects underwent a routine medical screening and neurological examination. A structured ethanol challenge was carried out to confirm tremors were ethanol-responsive. Subjects were videotaped at 0, 15, 30, 45, 60, and 75-minutes after receiving two servings (50-ml each) of 40% ethanol along with digitized spirography measures. Ethanol-responsive subjects then completed either a dose titration (1-64 mg/kg) inpatient study or a fixed dose (64 mg/kg) inpatient study to characterize the pharmacokinetics of 1-octanol and its predicted primary metabolite octanoic acid (OA). Tremor Assessment: To assess efficacy, subjects drew Archimedes spirals at fixed intervals on a digitizing tablet with an overlaid spiral guide. We used in-house analysis software to process the data before conducting a fast Fourier transform of tremor velocity to obtain our frequency and power measures.

Data set [2] can be described thus: Pharmacokinetics of oral 1-octanol and its metabolite octanoic acid in plasma of adults with Essential Tremor. It is filed as in vivo, human. As to the method:
Subjects: All subjects underwent a routine medical screening and neurological examination. A structured ethanol challenge was carried out to confirm tremors were ethanol-responsive. Subjects were videotaped at 0, 15, 30, 45, 60, and 75-minutes after receiving two servings (50-ml each) of 40% ethanol along with digitized spirography measures. Ethanol-responsive subjects then completed either a dose titration (1-64 mg/kg) inpatient study or a fixed dose (64 mg/kg) inpatient study to characterize the pharmacokinetics of 1-octanol and its predicted primary metabolite octanoic acid (OA). Plasma Sampling: During the inpatient study, subjects received oral 1-octanol followed by collection of plasma samples at the following intervals: 5, 20, 45, 70, 100, 130, 160, 210, 270 and 360-minutes post-dose. Samples were processed then batch analyzed using high-performance liquid chromatography and mass spectrometry methods to measure concentrations of 1-octanol and OA.

The test system of data set [3] is Essential Tremor. To be noted: humans with Essential Tremor; Bushara 2004, Shill 2004; cited from earlier work.
Data set [4] concerns hereditary essential tremor. To be noted: patients with hereditary essential tremor; Brain 1994, 117: 805-824; cited from earlier work.
A further data set concerns harmaline-induced tremor. Description: Harmaline mouse model of essential tremor (motion power percentage). It is filed as in vivo. To be noted: male ICR mice, harmaline 20 mg/kg s.c., octanoic acid i.p. in PEG-300. An excerpt: The harmaline model of essential tremor: Harmaline is a beta-carboline alkaloid that produces action tremor on systemic administration to mammals (see Llinas et al., Exp Brain Res 18:69 (1973)). […] Harmaline thus acts within the olivo-cerebellar system to produce tremor and can be used as a model to assess potential ET therapies (see Martin et al., Mov. Disord. 20:298 (2005)).
Animals: Male ICR mice (20-24 g) from Harlan (Indianapolis, Ind.) were housed in groups in standard cages with ad libitum access to commercial rodent diet and water.
Tremor measurement: Motion activity was measured with a Convuls-1 Replacement Sensing Platform model 1335-1A (Columbus Instruments, Columbus, Ohio), a metal platform with a load sensor beneath it, that is connected to a Grass model P511 AC amplifier (Grass Instruments, West Warwick, R.I.) with 1 and 70 Hz filter settings. Digitally recorded motion power was analyzed using Cambridge converter and software. Data was sampled at 128 Hz. The total motion power for each 20-minute epoch was calculated between 0 and 34 Hz (full motion spectrum) and between 10 and 16 Hz (the harmaline tremor frequency bandwidth); and the motion power percentage (10-16 Hz power)/(0-34 Hz power)×100 then calculated. This percentage is expressed as motion power percentage (MPP). […]

For the molecule `CCCCCCCCO` [1-octanol], the “peak tremor reduction from baseline” value in the data set with Essential Tremor [1] (at 120 minutes post-dose) was 42%. For the same molecule, the “persistence of tremor-reducing effect” value with Essential Tremor [1] (last timepoint 360 minutes) is above 360 min. For the same molecule, the “1-octanol concentration as a function of oral dose” value in data set [2] (oral 1-octanol dose titration 1-64 mg/kg) is given as “remained at very low basal levels until the 64 mg/kg dose”. Also, the “safety and tremor suppression in early human studies” value in the data set on Essential Tremor [3] was “safe and effective at tremor suppression”.

As to `CCO` [ethanol], the “proportion of patients in whom treatment was effective” value in data set [4] is 50%.

As for `CCCCCCCC(=O)O` [octanoic acid], in data set [2] (human, in vivo, po), the OA plasma half-life entry is recorded as “approximately 74 minutes”, the “earliest time at which OA plasma concentrations were detectable post-dose” value was found to be 5 min and the “persistence of OA plasma levels following administration” value was “up to 6 hours”. The “suppression of harmaline-induced tremor” value in the data set on harmaline-induced tremor is “suppressed harmaline-induced tremor in a dose dependent fashion”.
